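A five-concentration, 48-hour dose response in 96-well plates underlies each endpoint, interpolated linearly between surrounding concentrations. GI50 marks 50% less growth. TGI denotes the concentration required for complete inhibition of growth.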
Assays:
Assay in all cases: growth of human tumour cells (NCI), 48 h
[1] = system: MALME-3M melanoma
[2] = system: DU-145 prostate
[3] = system: U251 CNS
[4] = system: ACHN renal
[5] = system: OVCAR-8 ovarian
[6] = system: SNB-75 CNS
[7] = system: MDA-MB-435
[8] = system: NCI-H522 lung
[9] = system: CCRF-CEM leukemia
[10] = system: OVCAR-5 ovarian

Row | SMILES | GI50 [1] [µM] | TGI [1] [µM] | GI50 [2] [µM] | TGI [2] [µM] | GI50 [3] [µM] | TGI [3] [µM] | GI50 [4] [µM] | TGI [4] [µM] | GI50 [5] [µM] | TGI [5] [µM] | GI50 [6] [µM] | TGI [6] [µM] | GI50 [7] [µM] | TGI [7] [µM] | GI50 [8] [µM] | TGI [8] [µM] | GI50 [9] [µM] | TGI [9] [µM] | GI50 [10] [µM] | TGI [10] [µM]
1 | CC(C)S(=O)(=O)c1ccccc1Nc1nc(Nc2cccc(NC(=O)CN)c2)ncc1Cl | 1.22 | 3.12 | 0.406 | 6.51 | 0.179 | 2.86 | 0.124 | 6.95 | 0.286 | 6.97 | 0.0346 | 0.41 | 0.553 | 2.16 | 1.33 | 4.08 | < 0.0355 | 4.5 | 0.183 | 9.27
2 | COc1cc2c(cc1O)C1Cc3ccc(OC)c(O)c3C(C2)N1C (stereo not given) |  | > 100 |  | > 100 |  | > 100 |  | > 100 |  | > 100 |  |  |  | > 100 |  | > 100 |  | > 100 |  | > 100
3 | COc1ccc(-c2ccc(/C=N/n3c(C)n[nH]c3=S)o2)c([N+](=O)[O-])c1 | 54.1 | > 100 | > 100 | > 100 |  |  | 93 | > 100 | 84 | > 100 |  |  | > 100 | > 100 | > 100 | > 100 | > 100 | > 100 | > 100 | > 100
4 | Cc1cc(N/N=C/c2nc(-c3ccc(Br)cc3)oc2C)c2cc(Br)ccc2n1 | 2.1 | 4.48 | 3.81 | 13.9 | 1.94 | 3.75 | 2.86 | 8.05 | 2.43 | 6.66 | 2.17 | 6.66 | 2.25 | 5.34 | 2.21 | 5.62 | 2 | 29.7 | 10.7 | 22.5
5 | O=C(COc1ccc(/C=C2\CSc3ccccc3C2=O)cc1)Nc1nccs1 | 15 | 31.4 | 4.2 | 14.3 | 6.93 | 19.5 | 13.5 | 26.4 | 7.76 | 32.8 | 11.5 | 25.1 | 3.31 | 15.1 | 1.92 | 4.17 | 2.01 | 9.09 | 18.2 | 32.8

— PubChem BioAssay (NCI)
